From patent US20220348885A1, “BIOLOGICALLY RELEVANT IN VITRO SCREENING OF HUMAN NEURONS” (The Board of Trustees of the Leland Stanford Junior …, priority 2016, published 2022)
“Also recorded” adds a separate entry of the source.

Columns and labels:
[1] = system: neural co-cultures consisting of primary glial cells and glutamatergic excitatory iN cells; experiment: MEA recording of neuronal network activity, pure excitatory co-culture (Example 3); format: cell-based, human; conditions: for decrease of the frequency of total bursts / decrease of the frequency of total spikes (mean firing rate): dosed vs baseline
Procedure: Induced excitatory neurons were seeded at day 4 after induction by transcriptional activation of the neurogenic transcription factor NGN2, on 12-well MEA plates (Axion BioSystems) coated with matrigel. A total of 600,000 iN cells were plated per well. Primary glial cells were obtained by dissociating brains of mouse pups at postnatal day 3 with hippocampal and cerebellar structures being removed in advance. Dissociated brains were pre-cultured and passaged twice to remove primary neurons. Glial cells were then seeded directly on the plated iN cells at a density of 120,000 cells per well.
Recordings of spontaneous neuronal activity were performed at 1, 2, 3, and 4 weeks after plating for a period of 10 minutes each.
Neural co-cultures were produced as described under Example 1. […] Recordings were performed at week 4 in culture for 10 minutes for each condition including baseline measurements prior to compound application and test measurements following the addition of a single compound. Between baseline and test condition recordings, the plates were store in an incubator (37° C., 5% CO2) to readjust pH of the media. Each compound was applied to a different well in order to prevent secondary effects of previous treatments. First, the effect of the common compound solvent DMSO was tested by adding 0.1% to the neural co-culture medium. As depicted in FIG. 6A i and ii, DMSO alone increased the frequency of total spikes (mean firing rate) and the frequency of total bursts by 0.2 Hz and 0.018 Hz, respectively. Moreover, a minor increase in synchrony could be detected increasing the percentage of bursts within synchronized network activity by approximately 5%.

[2] = system: neural co-cultures consisting of primary human glial cells and a mixture of glutamatergic excitatory iN cells and GABAergic inhibitory iN cells; experiment: Bicuculline-induced seizure-like network activity on MEA and co-application of antiepileptic drugs (Example 7); format: cell-based; conditions: co-application with 1 μM bicuculline, 3 doses
Procedure: Generation of human neural co-cultures and MEA recording settings and thresholds were as described under Example 6. […] Co-application of AEDs was performed in 3 different doses and each condition was tested in 6 technical replicates.

[3] = system: neural co-cultures consisting of primary glial cells and a mixture of glutamatergic excitatory iN cells and GABAergic inhibitory iN cells; experiment: MEA recording of neuronal network activity, mixed excitatory/inhibitory co-culture approx. 70%/30% (Example 4); format: cell-based, human; conditions: 50 μM, excitatory/inhibitory approx. 70%/30%
Procedure: Induced excitatory neurons were seeded at day 4 and induced inhibitory neurons were seeded at day 6 after induction. A total of 200000 excitatory iN cells and 200000 inhibitory iN cells were plated simultaneously per well on 12-well MEA plates (Axion BioSystems) coated with matrigel. Primary glial cells were obtained as described in Example 1, and seeded directly on the plated iN cells at a density of 100000 cells per well.
Neural co-cultures were produced as described under Example 2 resulting in excitatory/inhibitory iN cell ratio of approximately 70%/30%. Recordings of neuronal activity, threshold values, and the procedure of measuring baseline and test conditions were performed as described under Example 3. Here, the effect of PTX was tested by adding a final concentration of 50 μM to the neural co-culture medium.

[4] = system: neural co-cultures with a stronger inhibitory component (excitatory/inhibitory iN cells 50%/50%, glial cells from human primary NSCs); experiment: MEA recording of neuronal network activity, mixed excitatory/inhibitory co-culture approx. 50%/50% with human glial cells (Example 4, second experiment); format: cell-based; conditions: 50 μM, excitatory/inhibitory approx. 50%/50%, 4 weeks in culture
Procedure: In a second experiment, the effect of PTX on synchronized neuronal network activity in neural co-cultures with a stronger inhibitory component was assessed. For this purpose, a total of 100,000 excitatory iN cells and 300,000 inhibitory iN cells were plated simultaneously per well on 12-well MEA plates (Axion BioSystems) coated with matrigel. Glial cells were derived from human primary NSCs as described above and seeded directly on the plated iN cells at a density of 100,000 cells per well. Due to the different apoptosis rates of the two iN cells types mentioned earlier, the final ratio of excitatory/inhibitory neurons after 4 weeks in culture was approximately 50%/50%.
The effect of PTX was tested by adding a final concentration of 50 μM to the neural co-culture medium.

## NC(CCCP(=O)(O)O)C(=O)O (stereo not shown) [AP5]
[1]; 50 μM, week 4 in culture
  reduction of the average duration of bursts: about 30%
  synchronized network activity as measured by network burst percentage: reduced
  decrease of the frequency of total bursts: 0.004 Hz
  decrease of the frequency of total spikes (mean firing rate): 0.2 Hz

## N#Cc1cc2[nH]c(=O)c(=O)[nH]c2cc1[N+](=O)[O-] [CNQX]
[1]; 20 μM, week 4 in culture
  occurrence of synchronized network activity: completely abolished
  decrease of the frequency of total bursts: 0.005 Hz
  decrease of the frequency of total spikes (mean firing rate): 0.4 Hz

## Nc1nnc(-c2cccc(Cl)c2Cl)c(N)n1 [lamotrigine]
[2]
  mean firing rate, network burst duration, and synchrony: to baseline level (solvent control), or further reduced; also recorded: dose-dependent decrease

## O=C1NC(=O)C(c2ccccc2)(c2ccccc2)N1 [phenytoin]
[2]
  mean firing rate, network burst duration, and synchrony: to baseline level (solvent control), or further reduced; also recorded: dose-dependent decrease

## picrotoxin [PTX]
[3]
  increase of synchrony of network bursts: ~60%
  spike and burst frequencies: increase
[4]
  synchronized network burst pattern: extended synchronized bursts with shortening inter-burst intervals
[1]; 50 μM in 0.1% DMSO, pure excitatory culture without GABAergic cells
  change in spike and burst frequencies and synchronized network activity: largely corresponded to the changes observed upon application of 0.1% DMSO
